Laboratory results taken from the NIST ThermoML archive (doi:10.1016/j.fluid.2017.10.023).
Numbers after ± are expanded uncertainties.

Test: xn = mol fraction of the nth substance listed
Conditions: 313.15 K; for surface tension liquid-gas: Pendant drop shape; for mass density: Liquid, Vibrating tube method

CCCCC [pentane] + C
Conditions | mass density [kg/m3] | surface tension liquid-gas [mN/m]
x2 = 0.048 | 594.4 ± 1.1 | 12 ± 0.2
x2 = 0.101 | 581 ± 1.2 | 10.13 ± 0.21
x2 = 0.181 | 558.8 ± 1.3 | 7.61 ± 0.18
x2 = 0.263 | 533.1 ± 1.4 | 5.37 ± 0.16
x2 = 0.351 | 501.8 ± 1.7 | 3.26 ± 0.14
x2 = 0.43 | 466.3 ± 1.9 | 1.68 ± 0.11
x2 = 0.501 | 431.5 ± 2 | 0.761 ± 0.1
